Source: patent publication US20230405002A1, “COMBINATIONS OF DIACYLGLYCEROL ACYLTRANSFERASE 2 INHIBITORS AND ACETYL-COA CARBOXYLASE INHIBITOR” (Pfizer Inc., priority 2020, published 2023)
In brackets after ≈: the same amount, converted by molar mass.

Experiments:
human liver microsomes = assay: Intrinsic clearance in human liver microsomes; settings: human liver microsome assay, 1 μM
human DGAT2 (hDGAT2) = human DGAT2 (hDGAT2) (Homo sapiens (Human), UniProt Q96PD7); assay: In vitro DGAT2 assay, determination of IC50 values; format: biochemical; settings: geometric mean; hDGAT2 membrane fraction
Chain of human DGAT2 (hDGAT2) (Q96PD7 whole entry): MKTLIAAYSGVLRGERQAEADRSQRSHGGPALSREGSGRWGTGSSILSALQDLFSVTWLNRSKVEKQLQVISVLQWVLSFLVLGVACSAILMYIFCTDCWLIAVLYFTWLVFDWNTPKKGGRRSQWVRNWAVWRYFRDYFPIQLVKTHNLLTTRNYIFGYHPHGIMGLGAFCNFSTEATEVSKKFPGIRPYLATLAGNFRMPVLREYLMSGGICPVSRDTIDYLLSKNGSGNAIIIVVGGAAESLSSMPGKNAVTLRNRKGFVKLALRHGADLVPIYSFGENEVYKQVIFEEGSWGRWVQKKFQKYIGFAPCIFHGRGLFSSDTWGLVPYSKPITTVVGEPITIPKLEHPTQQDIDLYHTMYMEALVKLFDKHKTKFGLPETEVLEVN

[1] = molecular target: DGAT2 in human hepatocytes (Homo sapiens (Human), UniProt Q96PD7); assay: Determination of IC50 values for DGAT2 inhibitors in human hepatocytes; format: cell-based; settings: geometric mean; cryopreserved human hepatocytes, DGAT1 inhibitor 3 μM present
Chain of DGAT2 in human hepatocytes (Q96PD7 whole entry): as above
Procedure: For evaluation of the effects of DGAT2 inhibitors in a cell-based setting, cryopreserved human hepatocytes (Lot DOO, Celsis, Baltimore, MD) were thawed and plated onto type I collagen-coated plates according to the manufacturer's instructions. After 18 hours overnight recovery period, the cells were overlayed with media containing 250 μg/mL Geltrex Basement Membrane Matrix (Thermo Fisher). The following day, media was aspirated and replaced with serum-free Williams Media E (Thermo Fisher) containing 400 μM sodium dodecanoate (Sigma-Aldrich, St. Louis, MO) and 2 mM GlutaMAX (Thermo Fisher). […] DGAT2 inhibitors were then added to the desired final concentration. After a 15 minute preincubation, 0.2 μCi [^14C(U)]-glycerol (Perkin Elmer) was added to each well followed by a 3 hour incubation. At this point the media was removed, and the cells lysed via orbital shaking in isopropyl alcohol: tetrahydrofuran (9:1) for 15 minutes prior to centrifugation at 3000 rpm for 10 minutes. Radiolabeled lipids were resolved using a solvent system by thin layer chromatography with the solvent consisting of hexanes: diethyl ether: glacial acetic acid (75:23:2, v/v/v). After separation, radiolabeled lipids were visualized using the Typhoon 9500 phosphorimaging system (GE). The half maximal inhibitory concentrations (IC50 values) were determined by nonlinear regression analysis of the % inhibition dose response curve using GraphPad Prism (GraphPad Software, Inc., La Jolla, CA).
Table 12 below provides the IC50 values of selected Examples for inhibition of DGAT2 in human hepatocytes in accordance with the above-described assay. Results are reported as geometric mean IC50 values, with the number of replicates (n) shown.

human hepatocytes = assay: High throughput intrinsic clearance in human hepatocytes; settings: high throughput human hepatocyte assay, 1 μM
[2] = Determination of pKa (capillary electrophoresis); settings: most basic pKa, mean
[3] = system: Western diet fed Sprague-Dawley rats; assay: In vivo effects of DGAT2 inhibitors on plasma and hepatic triglyceride levels (rat western diet model); settings: oral 3, 10, 30, 100 mg/kg BID 7 days; dose dependent; vs western diet vehicle
Description: The rat western diet model was utilized to assess the effects of DGAT2 inhibitor treatment on plasma triglyceride production and hepatic triglyceride content in vivo. Male Sprague-Dawley rats were housed under standard laboratory conditions on a 12-hour light, 12-hour dark cycle (lights on at 06:00). Two weeks prior to study start animals were placed on a high-fat, high sucrose, high-cholesterol diet (D12079b, provided by Research Diets, New Brunswick, NJ). This diet provides ˜43% of kilocalories from carbohydrate and ˜41% of kilocalories from fat. Example 4 was administered orally as a solution (10 mL/kg dosing volume) in 0.5% methylcellulose in deionized water, pH 7.0-7.5 (methylcellulose was obtained from Sigma-Aldrich, St. Louis, MO). […] Plasma TG levels were determined using a Roche Hitachi Chemistry analyzer according to the manufacturer's instructions (Roche Diagnostics Corporation, Indianapolis, IN) and data was analyzed using GraphPad Prism (GraphPad Software, Inc., La Jolla, CA). […] The triglyceride assay was performed through absorbance and reported as milligrams per deciliter. […]
FIG. 29 plots the multiple dose effects of Example 4 on Plasma Triglyceride in Western Diet Fed Sprague-Dawley Rats where plasma triglyceride levels were determined from blood drawn from the lateral tail vein 2-hours following the final dose of Example 4. […]

[4] = Thermodynamic solubility in various media; format: physicochemical
Procedure: The solubility of active pharmaceutical ingredients is an important characteristic in determining biological performance and ease of formulation during drug development, with high solubility being preferred (Klein, S. 2010, The AAPS Journal, 12, 397-406; Di, L., et al 2012, Drug Disc. Today, 17. 486-495). A test sample of crystalline solid (˜7 mg) was combined in a vial with 1 mL of the relevant buffer solution and the mixture vortexed to combine. If the solid dissolved completely, additional solid was added with vortexing until a saturated solution was obtained. The saturated solution/solid mixture was capped and subjected to temperature cycling as follows: 1 min at 25° C.; 8 h at 40° C.; 5 h at 15° C. and 12 h at 25° C. The mixture was filtered in a centrifugal filtration device (0.22 μm PVDF filter, MilliporeSigma, Milwaukee, WI) at 13,000 rpm and the concentration of the test compound in the filtrate was determined by HPLC/UPLC with reference to a three point standard curve. Phosphate buffered saline (PBS, pH 6.8, 50 mM phosphate buffer, 250 mM NaCl). Simulated gastric fluid (SGN pH 1.2, USP recipe). […]

Row | solubility at 25 h ([4]; FaSSIF (as printed, 25 °C, thermodynamic from solid), FaSSIF pH 6.8 (second line so printed; method also names FeSSIF)) [µg/mL] | solubility at 25 h ([4]; fasted state simulated intestinal fluid (FaSSIF), 25 °C, thermodynamic from solid, FaSSIF pH 6.8 (first line)) [µg/mL] | Compound | CLint (+/− STD Dev) (human liver microsomes) [µL/min/mg] | IC50 (human DGAT2 (hDGAT2)) [nM] | IC50 [1] [nM] | CLint (+/− Std Dev) (human hepatocytes) | Basic pKa [2] | reduction in liver triglycerides [3] | reduction in plasma triglycerides [3] [%]
1 |  |  | CCOc1cccnc1Oc1cncc(-c2ncc(C(=O)N[C@@H]3CNCC[C@@H]3F)cn2)c1.O=C(O)C(F)(F)F.O=C(O)C(F)(F)F [Example 3, 2-{5-[(3-Ethoxypyridin-2-yl)oxy]pyridin-3-yl}-N-[(3R,4S)-4-fluoropiperidin-3-yl]pyrimidine-5-carboxamide, bis(trifluoroacetate) salt] | <7 | 40 | 23 | <1.9 +/− 0.35 μL/min/10^6 cells | 8.1 |  | 
2 |  |  | CCOc1cc(F)cnc1Oc1cncc(-c2ncc(C(=O)N[C@@H]3CNCC[C@@H]3F)cn2)c1.O=C(O)C(F)(F)F.O=C(O)C(F)(F)F [Example 1, 2-{5-[(3-Ethoxy-5-fluoropyridin-2-yl)oxy]pyridin-3-yl}-N-[(3R,4S)-4-fluoropiperidin-3-yl]pyrimidine-5-carboxamide, bis(trifluoroacetate) salt] | <7 | 5.8 |  | <2.7 +/− 0.72 μL/min/10^6 cells | 7.7 |  | 
3 | 1210 (≈ 2760 µM) | 700 (≈ 1600 µM) | CCOc1cccnc1Oc1cncc(-c2ncc(C(=O)N[C@@H]3CNC[C@@H](F)C3)cn2)c1 [Example 4, 2-{5-[(3-Ethoxypyridin-2-yl)oxy]pyridin-3-yl}-N-[(3S,5S)-5-fluoropiperidin-3-yl]pyrimidine-5-carboxamide] |  | 10 | 11 |  |  | up to 48% | ≤ 70
